Experimental data taken from patent EP2042492A1, “Novel Iminooxazole and Iminothiazole Compounds” (Bayer CropScience AG, priority 2007, dated 2009).

Legend:
Myzus persicae = Myzus persicae - test (MYZUPE spray application); type: in vivo; settings: application rate of 500g/ha, spray on Chinese cabbage leaf-disks infected with all instars of green peach aphid, 100% = all aphids killed
Description: Myzus persicae - test; (MYZUPE spray application)
Chinese cabbage (Brassica pekinesis) leaf-disks infected with all instars of the green peach aphid (Myzus persicae), are sprayed with a preparation of the active ingredient at the desired concentration.
After the specified period of time, mortality in % is determined. 100% means that all aphids have been killed; 0% means that none of the aphids have been killed.

[1] = LogP via HPLC according to EEC directive 79/831 Annex V.A8 (gradient method, acetonitrile / 0,1 % aqueous formic acid); type: physicochemical; settings: read-out: lgP (HCOOH)
Description: Step 2: A stirred mixture of 58 mg (0,24 mmol) of 1-[(1S)-1-(4-fluorophenyl)ethyl]-3-(2-hydroxyethyl)thiourea (preparation step 1) and 27 mg (0,29 mmol) of 1-chloro-propan-2-one in ethanol was refluxed for 18 hours. The solvent was evaporated under reduced pressure and the residue was heated to 70 °C with 25 % aqueous NH4OH solution. This aqueous solution was cooled to ambient temperature and extracted twice with dichloromethane. The organic layer was separated, dried with sodium sulfate and filtered off. The solvent was evaporated under reduced pressure. The residue was purified by chromatography (silica gel; cyclohexane/ethyl acetate = vol. 2:1) to afford 42 mg of 2-[(2E)-2-{[(1S)-1-(4-fluorophenyl)ethyl]imino}-4-methyl-1,3-thiazol-3(2H)-yl]ethanol. Yield: 42 mg (62,3 % of theory). logP (HCOOH) = 0,89 LogP values according EEC directive 79/831 Annex V.A8 via HPLC (gradient method, acetonitrile / 0,1 % aqueous formic acid).

Phaedon cochleariae = Phaedon cochleariae - test (PHAECO spray application); type: in vivo; settings: application rate of 500g/ha, sprayed Chinese cabbage leaf-disks infested with mustard beetle larvae, 100 % = all beetle larvae killed
Description: Phaedon cochleariae - test; (PHAECO spray application)
(§1) To produce a suitable preparation of active compound, 1 part by weight of active compound is mixed with the stated amount of solvent and emulsifier, and the concentrate is diluted with emulsifier-containing water to the desired concentration.
Chinese cabbage (Brassica pekinesis) leaf-disks are sprayed with a preparation of the active ingredient of the desired concentration. Once dry, the leaf disks are infested with mustard beetle larvae (Phaedon cochleariae).
After the specified period of time, mortality in % is determined. 100 % means that all beetle larvae have been killed and 0 % means that none of the beetle larvae have been killed.

Tetranychus urticae = Tetranychus urticae - test; OP-resistant (TETRUR spray application); type: in vivo; settings: application rate of 500g/ha, spray on French beans infested with all stages of two spotted spidermite, 100% = all spider mites killed
Description: Tetranychus urticae - test; OP-resistant (TETRUR spray application)
as §1
French beans (Phaseolus vulgaris) which are heavily infested with all stages of the two spotted spidermite (Tetranychus urticae), are sprayed with a preparation of the active ingredient at the desired concentration.
After the specified period of time, mortality in % is determined. 100% means that all spider mites have been killed and 0% means that none of the spider mites have been killed.

SMILES | chromatographic logP [1] | mortality at 500 g/ha (Myzus persicae) [%] | mortality at 500 g/ha (Phaedon cochleariae) [%] | mortality at 500 g/ha (Tetranychus urticae) [%]
Cc1csc(=N[C@@H](C)c2ccccc2)n1CCO [Example 2-17] | 0.85 | ≥ 80 |  | 
CCc1csc(=N[C@@H](C)c2ccccc2)n1CCO [Example 2-18] | 0.96 | ≥ 80 |  | 
CC(C)c1csc(=N[C@@H](C)c2ccccc2)n1CCO [Example 2-19] | 1.07 | ≥ 80 |  | 
Cc1sc(=N[C@@H](C)c2ccccc2)n(CCO)c1C [Example 2-21] | 1.13 | ≥ 80 |  | 
C[C@H](N=c1scc(C2CC2)n1CCO)c1ccccc1 [Example 2-22] | 1.01 | ≥ 80 |  | 
C[C@H](N=c1scc(-c2ccccc2)n1CCO)c1ccccc1 [Example 2-25] | 1.19 | ≥ 80 |  | 
C[C@H](N=c1scc(-c2cccnc2)n1CCO)c1ccccc1 [Example 2-27] | 0.85 | ≥ 80 |  | 
Cc1cs/c(=N/[C@@H](C)c2ccc(F)cc2)n1CCO [Example 2-152, 2-[(2E)-2-{[(1S)-1-(4-fluorophenyl)ethyl]imino}-4-methyl-1,3-thiazol-3(2H)-yl]ethanol] | 0.89 | ≥ 80 |  | 
CCc1csc(=N[C@@H](C)c2ccc(F)cc2)n1CCO [Example 2-153] | 1 | ≥ 80 | ≥ 80 | 
CC(C)c1csc(=N[C@@H](C)c2ccc(F)cc2)n1CCO [Example 2-154] | 1.12 | ≥ 80 |  | 
C[C@H](N=c1scc(C2CC2)n1CCO)c1ccc(F)cc1 [Example 2-157] | 1.03 | ≥ 80 |  | 
C[C@H](N=c1scc(C2CCCC2)n1CCO)c1ccc(F)cc1 [Example 2-158] | 1.31 | ≥ 80 |  | 
C[C@H](N=c1scc(-c2cccnc2)n1CCO)c1ccc(F)cc1 [Example 2-162] | 0.9 | ≥ 80 |  | 
C[C@H](N=c1scc(C2(Cl)CC2)n1CCO)c1ccc(F)cc1 [Example 2-164] | 1.14 | ≥ 80 |  | 
CCc1csc(=N[C@@H](C)c2ccc(OC)cc2)n1CCO [Example 2-273] | 1 |  |  | 
COc1ccc([C@H](C)N=c2scc(C(C)C)n2CCO)cc1 [Example 2-274] | 1.09 |  |  | 
COc1ccc([C@H](C)N=c2scc(C3CCCC3)n2CCO)cc1 [Example 2-278] | 1.33 |  |  | 
COc1ccc([C@H](C)N=c2scc(C3(Cl)CC3)n2CCO)cc1 [Example 2-284] | 1.14 |  |  | 
Cc1csc(=N[C@@H](C)c2ccc(Cl)cc2)n1CCO [Example 2-287] | 1.03 | ≥ 80 |  | ≥ 80
CCc1csc(=N[C@@H](C)c2ccc(Cl)cc2)n1CCO [Example 2-288] | 1.14 | ≥ 80 |  | ≥ 80
C[C@H](N=c1scc(C2(Cl)CC2)n1CCO)c1ccc(Cl)cc1 [Example 2-299] | 1.33 | ≥ 80 |  | 
CC[C@H](N=c1scc(C)n1CCO)c1ccccc1 [Example 2-362] | 0.98 | ≥ 80 |  | 
CC[C@H](N=c1scc(C(C)C)n1CCO)c1ccccc1 [Example 2-364] | 1.19 | ≥ 80 |  | 
CC[C@H](N=c1scc(-c2ccccc2)n1CCO)c1ccccc1 [Example 2-370] | 1.33 | ≥ 80 |  | 
CC[C@H](N=c1scc(C2(Cl)CC2)n1CCO)c1ccccc1 [Example 2-374] | 1.19 | ≥ 80 |  | 

Second part, led by results:

chromatographic logP [1] | SMILES | mortality at 500 g/ha (Myzus persicae) [%] | mortality at 500 g/ha (Phaedon cochleariae) [%] | mortality at 500 g/ha (Tetranychus urticae) [%]
1.26 | C[C@H](N=c1scc(C2CCCC2)n1CCO)c1ccccc1 [Example 2-23] | ≥ 80 |  | 
1.12 | C[C@H](N=c1scc(C2(Cl)CC2)n1CCO)c1ccccc1 [Example 2-29] | ≥ 80 |  | 
1.26 | C[C@H](N=c1scc(-c2ccccc2)n1CCO)c1ccc(F)cc1 [Example 2-160] | ≥ 80 |  | 
0.89 | COc1ccc([C@H](C)N=c2scc(C)n2CCO)cc1 [Example 2-272] |  |  | 
1.05 | COc1ccc([C@H](C)N=c2scc(C3CC3)n2CCO)cc1 [Example 2-277] |  |  | 
1.26 | COc1ccc([C@H](C)N=c2scc(-c3ccccc3)n2CCO)cc1 [Example 2-280] |  |  | 
0.9 | COc1ccc([C@H](C)N=c2scc(-c3cccnc3)n2CCO)cc1 [Example 2-282] |  |  | 
1.28 | CC(C)c1csc(=N[C@@H](C)c2ccc(Cl)cc2)n1CCO [Example 2-289] | ≥ 80 |  | 
1.42 | C[C@H](N=c1scc(C2CCCC2)n1CCO)c1ccc(Cl)cc1 [Example 2-293] | ≥ 80 |  | 
1.38 | C[C@H](N=c1scc(-c2ccccc2)n1CCO)c1ccc(Cl)cc1 [Example 2-295] | ≥ 80 |  | 
1.03 | C[C@H](N=c1scc(-c2cccnc2)n1CCO)c1ccc(Cl)cc1 [Example 2-297] | ≥ 80 |  | 
1.09 | CCc1csc(=N[C@@H](CC)c2ccccc2)n1CCO [Example 2-363] | ≥ 80 |  | 
1.14 | CC[C@H](N=c1scc(C2CC2)n1CCO)c1ccccc1 [Example 2-367] | ≥ 80 |  | 
1.4 | CC[C@H](N=c1scc(C2CCCC2)n1CCO)c1ccccc1 [Example 2-368] | ≥ 80 |  | 
1 | CC[C@H](N=c1scc(-c2cccnc2)n1CCO)c1ccccc1 [Example 2-372] | ≥ 80 |  | 
